The values below come from patent US4395969A (priority 1981, dated 1983).

One data set relates to stickleback. In words: Control of stickleback in 24-hour applications, usable concentration. Format: in vivo. Particulars: for recommended safe and effective concentration: river water tests. The source says: For field applications the concentration of the dichloro- and tetrachloro-compounds would vary with water quality--mainly with regard to water temperature and hydrogen ion concentrations. Generally, treated areas would contain water low in dissolved solids and a pH of 7 to 7.5. The activity of the chemicals would then be essentially similar to that determined in our tests using river water. For the treatment of rivers and shorelines of lakes the concentrations of the dichloro- and tetrachloro-compounds that would be used would be those that would kill stickleback or suckers in 12 to 24 hours. The information above, relating to Examples 1 and 12, substantiates improvement in fish culture by the addition of dichloroethyl or dichlorovinyl diethyl phosphate to an aqueous habitat at a concentration in water ranging between 0.1 and 10 mg/l. […] The information above, relating to Example 2, substantiates improvement in fish culture by the addition of tetrachloroethyl diethyl phosphate to an aqueous habitat at a concentration in water ranging between 4 and 80 μg/l.

The subject of a further data set is carp. Description: Bioassay, carp. Format: in vivo, Cyprinus carpio. Particulars: for selectivity to carp: in vivo. The method, then: In a later bioassay a concentration of 1 mg/l of 2, 2-dichlorovinyl diethyl phosphate killed a 20 g carp (68 mm) in 10 l of artesian well water (load, 2.0 g/l) at 10 C. in 30 hours.
A subsequent series of bioassays tested concentrations of 0.0, 0.6, 0.8, 1.0, 1.5 and 2.0 mg/l of 2, 2-dichlorovinyl diethyl phosphate with larger carp (fork length range, 115-150 mm; mean weight, 44 g) using 10 fish per concentration (load, 0.7 g/l) and artesian well water at 10 C. A concentration of 2.0 mg/l of the chemical killed 100 percent of the carp in 24 hours and a concentration of 1.5 mg/l killed 90 percent of them in […] and 100 percent in 72 hours. No fish died in the control or at a concentration of 0.6 mg/l in 192-hour bioassays. In contrast the LC0 of salmonids exposed to 2, 2-dichlorovinyl diethyl phosphate varies between 4 and 8 mg/l in 48-hour bioassays and 2 and 6 mg/l in 96-hour bioassays at 10 C. (Table 2).

The subject of another data set is coho salmon. Description: Static bioassay, lethal concentration to coho salmon. The class given is in vivo, Oncorhynchus kisutch. Particulars: 10 C. The method, then: (§1) Bioassays utilized water from an artesian well at Moscow, Idaho and from the headwaters of the Palouse River, also in Idaho. The chemical characteristics of the artesian water were analyzed as follows: Total hardness 67-120 mg/l; total dissolved solids, 160-175 mg/l; and pH 7.1. The chemistry of the Palouse River water was analyzed as follows: total hardness 17 mg/l; methyl orange alkalinity 26 mg/l; total dissolved solids, 32 mg/l and pH, 7.0.
(§2) Fish were acclimated to test temperatures, usually at 5, 7.5, 10, 15 and 20 degrees Celsius (C), at least 60 hours before exposure to toxicants. For fish and crayfish four water baths regulated the temperature of assay aquaria. Each water bath contained a battery of 20 identical 19-liter clear glass containers or 11.4-liter plastic aquaria lined with disposable polyethylene bags and covered with Plexiglass lids to reduce evaporation. For larger fish and large numbers of fish the bioassays were made in two temperature controlled rooms that contained a series of 700-liter circular fiberglass vats and a series of 76- and 91-liter plastic containers.
(§3) Standard bioassay techniques were used in sorting fish and conducting the tests. Fish were placed in aerated test aquaria overnight to permit fish to recover from stress due to handling and to deprive them of food. The average load varied but most bioassays were conducted with about 1 g of fish per liter of water.
(§4) Aliquots of organophosphates were dissolved in ethanol and dispensed to the aquaria to provide concentrations suitable for obtaining the LC0 and LC50 of desirable fish and the LC50 and LC100 of target fish. Control fish were conditioned in the same manner as the test fish, but no chemical was added to the control vessels during the assays. After the addition of a chemical, observations were made mainly at 3, 6, 12, 24, 48, 96, and 192 h. The weight and fork length of fish were obtained when fishes were sacrificed.
(§5) Delineation bioassays determined primarily the LC50 and LC100 of sucker and stickleback and the LC0 and LC50 of salmonids.
(§6) The statistical LC1, LC50, and LC99 were interpolated and/or extrapolated using probit graph paper to approximate the LC0, LC50, and LC100 when the latter set of values was not closely determined by single concentrations in a series.
(§7) Threespine stickleback, brook stickleback, bridgelip sucker, white sucker, chinook salmon, coho salmon, sockeye salmon, kokanee, Kamloops trout, cutthroat trout, and brook trout were treated with various concentrations of 2, 2, 2, 1-tetrachloroethyl diethyl phosphate and at various temperatures to determine approximate selectivity and safety indices. The approximate LC50 and LC100 of the target fishes (threespine and brook sticklebacks and bridgelip and white suckers) are tabulated in Table 5. The 96-hour selectivity and safety indices of selected species of salmonids versus the threespine stickleback are tabulated in Table 7.

Assay in data set [1]: as above
Particulars: coho salmon, water, 10 C. The class given is in vivo, Oncorhynchus kisutch. Here is the method:
as §1, §2, §3, §4, §5, §6, §7

Consider `CCOP(=O)(OC=C(Cl)Cl)OCC` [2,2-dichlorovinyl diethyl phosphate], for which the entries for the “recommended safe and effective concentration” value with stickleback (10 C) and in the data set on stickleback (15 C) were 5 mg/L and 3 mg/L, respectively. The “concentrations for control (upper: greater than)” value with stickleback (Kamloops, 10 C, 24 h or less, river water) is given as 4-4 mg/l. Moreover, the carp mortality entry in the data set on carp (0.6 mg/l, 192 h, artesian well water, 10 C) is listed as “No fish died”. In addition, in the data set with carp (1 mg/l, 20 g carp, artesian well water, 10 C), the “time in which carp was killed” value amounted to 30 h. In addition, the carp killed in the data set on carp (1.5 mg/l, 72 h, artesian well water, 10 C) worked out at 100%; with carp (1.5 mg/l, 96 h, artesian well water, 10 C) it was 90%; in the data set with carp (2.0 mg/l, 24 h, artesian well water, 10 C) it was 100%. Besides, the selectivity to carp entry is “specific for the carp and bullhead catfish” in the data set on carp; “the carp died first” with carp (listed as 2, 2-dichlorovinyl diethyl phosphate).

Usually LC50 stands for the concentration lethal to half of the exposed cells or organisms. High values mean lower toxicity, low ones greater toxicity. For the compound `CCOP(=O)(OCC)OC(Cl)C(Cl)(Cl)Cl` (stereo not drawn) [2,2,2,1-tetrachloroethyl diethyl phosphate], the LC0 in the data set with coho salmon (48 h) stood at 30 µg/L; in the data set on coho salmon (96 h), 14 µg/L; in the data set on coho salmon (192 h) it was 8 µg/L. In data set [1] (96 h), this compound registered an LC50 at 96 h of 0.023 µg/mL. The LC50 at 192 h in data set [1] (192 h) worked out at 0.015 µg/mL.
